Results taken from PubChem BioAssay (NCI).
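1) Cells in 96-well plates. 2) Compound, 48 h, 5 concentrations. 3) Linear interpolation between surrounding doses. 4) Unreached endpoint = highest concentration. GI50 is the concentration that inhibits growth by half. TGI: concentration producing complete growth inhibition.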 Where a SMILES comes first, the peptide text is derived from it. [ ]: non-standard residue; d: D form. The star is where a group is joined. Lauroyl = CCCCCCCCCCCC(=O)*; Aib = CC(C)(N)C(=O)O; βAla = NCCC(=O)O

What was measured:
Assay in all cases: NCI tumour cell line growth inhibition, 48 h
[1] = system: 786-0 renal
[2] = system: A498 renal
[3] = system: A549 NSCLC
[4] = system: ACHN renal
[5] = system: BT-549 breast
[6] = system: CAKI-1 renal
[7] = system: CCRF-CEM leukemia
[8] = system: COLO 205 colon
[9] = system: DU-145 prostate
[10] = system: EKVX NSCLC
[11] = system: HCC-2998 colon
[12] = system: HCT-116 colon
[13] = system: HCT-15 colon
[14] = system: HOP-62 NSCLC
[15] = system: HOP-92 NSCLC
[16] = system: HS 578T breast
[17] = system: HT29 colon
[18] = system: IGROV1 ovarian
[19] = system: K-562 leukemia
[20] = system: KM12 colon
[21] = system: LOX IMVI melanoma
[22] = system: M14 melanoma
[23] = system: MALME-3M melanoma
[24] = system: MCF7 breast
[25] = system: MDA-MB-231 breast
[26] = system: MDA-MB-435
[27] = system: NCI-H226 lung
[28] = system: NCI-H23 lung
[29] = system: NCI-H460 lung
[30] = system: NCI-H522 lung
[31] = system: NCI/ADR-RES ovarian
[32] = system: OVCAR-3 ovarian
[33] = system: OVCAR-4 ovarian
[34] = system: OVCAR-5 ovarian
[35] = system: OVCAR-8 ovarian
[36] = system: PC-3 prostate
[37] = system: RPMI-8226 leukemia
[38] = system: RXF 393 renal
[39] = system: SF-268 CNS
[40] = system: SF-295 CNS
[41] = system: SF-539 CNS
[42] = system: SK-MEL-2 melanoma
[43] = system: SK-MEL-28 melanoma
[44] = system: SK-MEL-5 melanoma
[45] = system: SK-OV-3 ovarian
[46] = system: SN12C renal
[47] = system: SNB-19 CNS
[48] = system: SNB-75 CNS
[49] = system: SR leukemia
[50] = system: SW-620 colon
[51] = system: T-47D breast
[52] = system: TK-10 renal
[53] = system: U251 CNS
[54] = system: UACC-257 melanoma
[55] = system: UACC-62 melanoma
[56] = system: UO-31 renal

Question: What does the source list for `CCCCCCCCCCCC(=O)NC(C)(C)C(=O)N1CCCC1C(=O)NC(C)(C)C(=O)NC(C)(C)C(=O)N1CCCC1C(=O)NC(C)(C)C(=O)NC(C)(C)C(=O)N1CCCC1C(=O)NC(C)C(=O)NCCC(=O)NC(C)C(=O)NC(C)(C)C(=O)NC(C)(C)C(=O)NC(C)(C)C(=O)NCCC(=O)NC(C)(C)C(=O)NC(C)(C)C(=O)NC(C)(C)C(=O)NC(C)C(=O)NCCC(=O)O` (configuration not stated) (Lauroyl-[Aib]P[Aib][Aib]P[Aib][Aib]PA[βAla]A[Aib][Aib][Aib][βAla][Aib][Aib][Aib]A[βAla]-OH; configuration not given here)?
Answer: GI50 [1]: 280 nM; TGI [1]: 513 nM; GI50 [2]: 375 nM; TGI [2]: 860 nM; GI50 [3]: 310 nM; TGI [3]: 635 nM; GI50 [4]: 341 nM; TGI [4]: 667 nM; GI50 [5]: 151 nM; TGI [5]: 383 nM; GI50 [6]: 279 nM; TGI [6]: 536 nM; GI50 [7]: 375 nM; TGI [7]: 818 nM; GI50 [8]: 344 nM; TGI [8]: 721 nM; GI50 [9]: 441 nM; TGI [9]: 1110 nM; GI50 [10]: 349 nM; TGI [10]: 790 nM; GI50 [11]: 533 nM; TGI [11]: 1960 nM; GI50 [12]: 300 nM; TGI [12]: 547 nM; GI50 [13]: 322 nM; TGI [13]: 652 nM; GI50 [14]: 325 nM; TGI [14]: 683 nM; GI50 [15]: 238 nM; TGI [15]: 515 nM; GI50 [16]: 271 nM; TGI [16]: 711 nM; GI50 [17]: 480 nM; TGI [17]: 1350 nM; GI50 [18]: 377 nM; TGI [18]: 1170 nM; GI50 [19]: 337 nM; TGI [19]: 822 nM; GI50 [20]: 478 nM; TGI [20]: 1320 nM; GI50 [21]: 286 nM; TGI [21]: 535 nM; GI50 [22]: 387 nM; TGI [22]: 1010 nM; GI50 [23]: 346 nM; TGI [23]: 796 nM; GI50 [24]: 368 nM; TGI [24]: 906 nM; GI50 [25]: 344 nM; TGI [25]: 780 nM; GI50 [26]: 422 nM; TGI [26]: 1040 nM; GI50 [27]: 435 nM; TGI [27]: 1230 nM; GI50 [28]: 303 nM; TGI [28]: 583 nM; GI50 [29]: 310 nM; TGI [29]: 577 nM; GI50 [30]: 307 nM; TGI [30]: 621 nM; GI50 [31]: 370 nM; TGI [31]: 833 nM; GI50 [32]: 444 nM; TGI [32]: 1130 nM; GI50 [33]: 296 nM; TGI [33]: 545 nM; GI50 [34]: 467 nM; TGI [34]: 1590 nM; GI50 [35]: 357 nM; TGI [35]: 827 nM; GI50 [36]: 319 nM; TGI [36]: 689 nM; GI50 [37]: 166 nM; TGI [37]: 561 nM; GI50 [38]: 291 nM; TGI [38]: 527 nM; GI50 [39]: 404 nM; TGI [39]: 1100 nM; GI50 [40]: 349 nM; TGI [40]: 873 nM; GI50 [41]: 298 nM; TGI [41]: 576 nM; GI50 [42]: 345 nM; TGI [42]: 765 nM; GI50 [43]: 437 nM; TGI [43]: 1360 nM; GI50 [44]: 327 nM; TGI [44]: 652 nM; GI50 [45]: 325 nM; TGI [45]: 623 nM; GI50 [46]: 296 nM; TGI [46]: 672 nM; GI50 [47]: 423 nM; TGI [47]: 1210 nM; GI50 [48]: 238 nM; TGI [48]: 527 nM; GI50 [49]: 352 nM; TGI [49]: 884 nM; GI50 [50]: 400 nM; TGI [50]: 986 nM; GI50 [51]: 440 nM; TGI [51]: 1440 nM; GI50 [52]: 388 nM; TGI [52]: 1180 nM; GI50 [53]: 254 nM; TGI [53]: 500 nM; GI50 [54]: 387 nM; TGI [54]: 1080 nM; GI50 [55]: 325 nM; TGI [55]: 724 nM; GI50 [56]: 669 nM; TGI [56]: 1700 nM
